Assay results reported in patent publication US11046691B1 (IDEAYA BIOSCIENCES, INC., priority 2018, dated 2021).

Target: hMAT2A (Homo sapiens (Human), UniProt P31153)
Assay: Phosphate Sensor Fluorescence Assay (MAT2A enzyme inhibition)
Type: biochemical
Conditions: L-methionine 500 uM, ATP 500 uM, class symbols
Summary of the method: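 Recombinant MAT2A preincubated 15 min at room temperature with compound, then reacted 1 h at room temperature with 500 uM L-methionine and 500 uM ATP in Tris pH 7.5 buffer containing PNP/7-MEG.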

Sequence of hMAT2A (P31153 whole entry): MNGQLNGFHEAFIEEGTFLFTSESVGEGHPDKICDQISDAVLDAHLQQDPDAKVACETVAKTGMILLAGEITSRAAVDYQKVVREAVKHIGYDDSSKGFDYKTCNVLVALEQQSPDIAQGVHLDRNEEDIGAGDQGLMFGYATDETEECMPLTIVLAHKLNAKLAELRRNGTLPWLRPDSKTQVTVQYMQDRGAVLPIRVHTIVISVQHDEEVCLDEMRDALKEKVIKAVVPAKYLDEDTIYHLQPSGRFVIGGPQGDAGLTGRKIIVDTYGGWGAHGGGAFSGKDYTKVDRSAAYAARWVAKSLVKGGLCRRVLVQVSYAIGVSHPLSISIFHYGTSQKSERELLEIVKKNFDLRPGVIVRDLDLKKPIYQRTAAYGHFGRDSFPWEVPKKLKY

SMILES	IC50
O=c1nc(N2CCC2CO)c2ccc(Cl)cc2n1-c1ccccc1 (centres unmarked) [Example 186, 7-chloro-4-[2-(hydroxymethyl)azetidin-1-yl]-1-phenylhydroquinazolin-2-one]	< 200 nM
CNc1nc(=O)n(-c2ccccc2C)c2cc(Cl)cc(OC)c12 [Example 329, 7-chloro-5-methoxy-4-(methylamino)-1-(2-methylphenyl)hydroquinazolin-2-one]	< 200 nM
O=c1nc(NC2(CO)CC2)c2ccc(C(F)(F)F)nc2n1-c1ccccc1Cl [Example 322, 1-(2-chlorophenyl)-4-{[(hydroxy-methyl)cyclopropyl]amino}-7-(trifluoro-methyl)-pyrido[2,3-d]pyrimidin-2(1H)-one]	< 200 nM
Nc1nc(=O)n(-c2ncccn2)c2cc(C(F)(F)F)ccc12 [Example 124, 4-amino-1-pyrimidin-2-yl-7-(trifluoro-methyl)hydroquinazolin-2-one]	500 to 1000 nM
Cc1ccc2c(N3CC(O)C3)nc(=O)n(-c3ccccc3)c2n1 [Example 384, 4-(3-hydroxyazetidin-1-yl)-7-methyl-1-phenylpyrido[2,3-d]pyrimidin-2(1H)-one]	< 200 nM
CNc1nc(=O)n(-c2ccc3[nH]ncc3c2)c2cc(Cl)ccc12 [Example 328, 1-(1H-indazol-5-yl)-7-chloro-4-(methyl-amino)hydroquinazolin-2-one]	< 200 nM
O=c1nc(NCC(F)(F)F)c2ccc(C(F)(F)F)cc2n1-c1ncccn1 [Example 121]	200 to 500 nM
CNC(=O)CN(C)c1nc(=O)n(-c2ccccc2)c2cc(Cl)ccc12 [Example 221, 2-((7-chloro-2-oxo-1-phenyl-1,2-dihydroquinazolin-4-yl)(methyl)amino)-,N-methylacetamide]	1000 to 10000 nM
CNc1nc(=O)n(-c2cnccc2OC)c2nc(C(F)(F)F)ccc12 [Example 92, 1-(4-methoxypyridin-3-yl)-4-(methyl-amino)-7-(trifluoromethyl)pyrido[2,3-d]pyrimidin-2(1H)-one]	200 to 500 nM
C=Cc1ccc2c(NC)nc(=O)n(-c3ccccc3)c2c1 [Example 96, 4-(methylamino)-1-phenyl-7-vinylhydro-quinazolin-2-one]	< 200 nM
CNc1nc(=O)n(-c2ccccc2C)c2cc(C3CC3)ccc12 [Example 352, 7-cyclopropyl-4-(methylamino)-1-(2-methylphenyl)hydroquinazolin-2-one]	< 200 nM
O=c1[nH]c(=O)n(-c2ccc3[nH]cnc3c2)c2cc(Cl)ccc12 [Example 340, 1-(1H-benzo[d]imidazol-5-yl)-7-chloro-quinazoline-2,4(1H,3H)-dione]	200 to 500 nM
O=c1nc(N2CC[C@H](O)C2)c2ccc(C(F)(F)F)nc2n1-c1ccccc1Cl [Example 181, (S)-1-(2-chlorophenyl)-4-(3-hydroxy-pyrrolidin-1-yl)-7-(trifluoromethyl)-pyrido[2,3-d]pyrimidin-2(1H)-one]	< 200 nM
COc1cc(C2CC2)cc2c1c(NCC1(F)CC1)nc(=O)n2-c1ccccc1Cl [Example 407, 1-(2-chlorophenyl)-7-cyclopropyl-4-{[(fluorocyclopropyl)methyl]amino}-5-methoxyhydroquinazolin-2-one]	< 200 nM
CNc1nc(=O)n(-c2cccc(C#N)c2)c2cc(Cl)ccc12 [Example 155, 3-[7-chloro-4-(methylamino)-2-oxo-hydroquinazolinyl]benzenecarbonitrile]	200 to 500 nM
O=c1nc(NCC(F)F)c2ccc(C3CC3)cc2n1-c1ccccc1 [Example 373]	< 200 nM
O=c1nc(N[C@H]2C[C@H]2F)c2ccc(C(F)(F)F)cc2n1-c1ccccc1 [Example 424, 4-(((1S,2R)-2-fluorocyclopropyl)amino)-1-phenyl-7-(trifluoromethyl)quinazolin-2(1H)-one]	< 200 nM
CN(C)C(=O)C1CN(c2nc(=O)n(-c3ccccc3)c3cc(Cl)ccc23)C1 [Example 159, [1-(7-chloro-2-oxo-1-phenylhydro-quinazolin-4-yl)azetidin-3-yl]-N,N-dimethylcarboxamide]	< 200 nM
CNc1nc(=O)n(-c2ccccc2Cl)c2cc(C(F)(F)F)c(Br)cc12 [Example 302, 6-bromo-1-(2-chlorophenyl)-4-(methylamino)-7-(trifluoromethyl)-quinazolin-2(1H)-one]	< 200 nM
O=c1nc(NCC2(O)CC2)c2ccc(C(F)(F)F)nc2n1-c1ccccc1Cl [Example 295, 1-(2-chlorophenyl)-4-{[(hydroxycyclo-propyl)methyl]amino}-7-(trifluoro-methyl)-pyrido[2,3-d]pyrimidin-2(1H)-one]	< 200 nM
O=c1nc(NCCCO)c2ccc(C(F)(F)F)nc2n1-c1ccccc1Cl [Example 247, 1-(2-chlorophenyl)-4-[(3-hydroxy-propyl)amino]-7-(trifluoromethyl)-pyrido[2,3-d]pyrimidin-2(1H)-one]	< 200 nM
Nc1nc(=O)n(-c2ccccc2Cl)c2nc(C(F)(F)F)ccc12 [Example 167, 4-amino-1-(2-chlorophenyl)-7-(trifluoro-methyl)pyrido[2,3-d]pyrimidin-2(1H)-one]	< 200 nM
CNc1nc(=O)n(-c2nccc(OC)n2)c2cc(Cl)ccc12 [Example 106, 7-chloro-1-(4-methoxypyrimidin-2-yl)-4-(methylamino)hydroquinazolin-2-one]	1000 to 10000 nM
O=c1nc(N[C@H]2CC[C@@H]2O)c2ccc(C(F)(F)F)nc2n1-c1ccccc1Cl (atropisomer, axis not shown; (Sa)) [Example 337, 4-[((1S,2 S)-2-hydroxycyclobutyl)-amino]-(1Sa)-(2-chlorophenyl)-7-(trifluoromethyl)hydro-pyridino [2,3-d]-pyrimidin-2-one]	< 200 nM
O=c1nc(N2CCCC2)c2ccc(C3CC3)cc2n1-c1ccccc1 [Example 386, 7-cyclopropyl-1-phenyl-4-pyrrolidin-1-ylhydroquinazolin-2-one]	< 200 nM
CNc1nc(=O)n(-c2ccccc2)c2nc(C(C)C)ccc12 [Example 414, 4-(methylamino)-7-(methylethyl)-1-phenylpyrido[2,3-d]pyrimidin-2(1H)-2-one]	< 200 nM

Same assay, conditions: L-methionine 500 uM, ATP 500 uM, numeric bound

SMILES	IC50
O=c1[nH]c(=O)n(-c2cccc3nc[nH]c23)c2cc(Cl)ccc12 [Example 305, 1-benzimidazol-7-yl-7-chloro-1,3-dihydroquinazoline-2,4-dione]	> 10000 nM
Cn1ccnc1-n1c(=O)[nH]c(=O)c2ccc(Cl)cc21 [Example 215, 7-chloro-1-(1-methylimidazol-2-yl)-1,3-dihydroquinazoline-2,4-dione]	> 10000 nM
O=c1nc(O)c2c(C3=CCNC3)cc(Cl)cc2n1-c1ccccc1 [Example 289, 7-chloro-5-(2,5-dihydro-1H-pyrrol-3-yl)-4-hydroxy-1-phenylquinazolin-2(1H)-one]	> 10000 nM
CC(C)c1nc(=O)n(-c2ccccc2)c2cc(Cl)ccc12 [Example 104, 7-chloro-4-(methylethyl)-1-phenylhydro-quinazolin-2-one]	> 10000 nM
O=C1CCN1c1nc(=O)n(-c2ccccc2)c2cc(Cl)ccc12 [Example 206, 7-chloro-4-(2-oxoazetidin-1-yl)-1-phenylhydroquinazolin-2-one]	> 10000 nM
O=c1[nH]c(=O)n(-c2nc3ccccc3s2)c2cc(Cl)ccc12 [Example 253, 1-benzothiazol-2-yl-7-chloro-1,3-dihydroquinazoline-2,4-dione]	> 10000 nM
